# Test results from patent publication US20120035247A1, “RNA Interference Mediated Inhibition of Signal Transducer and Activator of Transcription 6 (STAT6) Gene Expression Using Short Interfering Nucleic Acid (siNA)” (Merck Sharp & Dohme Corp., priority 2009, published 2012).
# [invAb] = inverted abasic unit; m = 2'-O-methyl; r = 2'-OH (RNA); f = 2'-fluoro
# What was measured:
# STAT6 mRNA [1] = experiment: STAT6 siNA screen and dose response in human A549 cells, STAT6 mRNA by quantitative RT-PCR (Taqman); assay type: cell-based; conditions: human A549 cells, 10 nM siNA, 24 hrs, normalized to GAPDH and non-targeting control, mean ± S.D., n = 3
# Experimental: A549 (human; ATCC cat# CCL-185): Cells were cultured at 37° C. in the presence of 5% CO2 and grown in Ham's F12K medium with 2 mM L-glutamine adjusted to contain 1.5 g/L sodium bicarbonate and supplemented with fetal bovine serum at a final concentration of 10%, 100 μg/mL of streptomycin, and 100 U/mL penicillin.
# (§1) Cells were plated in all wells of a tissue-culture treated, 96-well plate at a final count of 5000 cells/well in […], of the appropriate culture media. The cells were cultured for 24 hours after plating at 37° C. in the presence of 5% CO2.
# (§2) After 24 hours, complexes containing siNA and RNAiMax were created as follows: A solution of RNAiMax diluted 33-fold in OPTI-MEM was prepared. In parallel, solutions of the siNAs for testing were prepared to a final concentration of 120 nM in OPTI-MEM. After incubation of RNAiMax/OPTI-MEM solution at room temperature for 5 min, an equal volume of the siNA solution and the RNAiMax solution were added together for each of the siNAs.
# (§3) This solution was incubated at room temperature for 20 minutes. After incubation, 20 uL of the solution was added to each of the relevant wells. The final concentration of siNA in each well was 10 nM and the final volume of RNAiMax in each well was 0.3u1.
# (§4) The time of incubation with the RNAiMax-siNA complexes was 24 hours and there was no change in media between transfection and harvesting, unless otherwise indicated.
# (§5) RNA was extracted from a 96-well plate using the TaqMan® Gene Expression Cells-to-CT™ Kit (Cat#4399002) with a modified protocol. Briefly, a 60 uL (1 plate) or 110 uL (2 plates) of the Lysis Solution with DNase I was dispensed into each well of the Lysis Buffer Plate (twin.tec full skirt plate). The lysis buffer and stop plates were stored at 4° C. until the cells were washed.
# (§6) The plate was spun at 1100 rpm for 5 minutes. The culture medium was aspirated and discarded from the wells of the culture plate. The lysis was performed automatically using a BioMek FX instrument and method. After the Biomek method was completed, the lysis plate was incubated for 2 min. at room temperature. The lysis plate can be stored for 2 hours at 4° C., or at −20° C. or −80° C. for two months.
# (§7) Each well of the reverse transcription plate required 10 uL of 2× reverse transcriptase Buffer, luL of 20× reverse transcription enzyme and 2 uL of nuclease-free water. The reverse transcription master mix was prepared by mixing 2× reverse transcription buffer, 20× reverse transcription enzyme mix, and nuclease-free water. 13 uL of the reverse transcription master mix was dispensed into each well of the reverse transcription plate (semi-skirted). A separate reverse transcription plate was prepared for each cell plate. The plate was loaded onto a Biomek NX or Biomek FX Dual-96 and the Biomek method was run. The program is programmed to automatically added 7 uL of lysate from the cell lysis procedure described above into each well of the reverse transcription plate. The plate is sealed and spun on a centrifuge (1000 rpm for 30 seconds) to settle the contents to the bottom of the reverse transcription plate. The plate is placed in a thermocycler at 37° C. for 60 min, 95° C. for 5 min, and 4° C. until the plate is removed from the thermocycler. Upon removal, if not used immediately, the plate was frozen at −20° C.
# (§8) A series of probes and primers were used to detect the various mRNA transcripts of the genes of 13-Actin (human cell line only), and of STATE and GAPDH in mouse and human cell lines. All Taqman probes and primers for the experiments here-in described were supplied as pre-validated sets by Applied Biosystems, Inc. (see Table 2).
# The assays were performed on an ABI 7900 instrument, according to the manufacturer's instructions. A TaqMan Gene Expression Master Mix (provided in the Cells-to-CTT™, Applied Biosystems, Cat #4399002) was used. The PCR reactions were carried out at 50° C. for 2 min, 95° C. for 20 min followed by 40 cycles at 95° C. for 15 secs and 60° C. for 1 min. […]
# STAT6 mRNA [2] = experiment: STAT6 siNA screen in mouse NIH 3T3 cells, STAT6 mRNA by quantitative RT-PCR (Taqman); assay type: cell-based; conditions: mouse NIH3T3 cells, 10 nM siNA, 24 hrs, normalized to GAPDH and non-targeting control, n = 2
# Experimental: NIH 3T3 (mouse; ATCC cat# CRL-1658): Cells were cultured at 37° C. in the presence of 5% CO2 and grown in Dulbecco's modified Eagle's medium (DMEM) with 4 mM L-glutamine adjusted to contain 1.5 g/L sodium bicarbonate and 4.5 g/L glucose and supplemented with fetal bovine serum at a final concentration of 10%, 100 μg/mL of streptomycin, and 100 U/mL penicillin.
# as §1, §2, §3, §4, §5, §6, §7, §8
# The assays were performed on an ABI 7900 instrument, according to the manufacturer's instructions. A TaqMan Gene Expression Master Mix (provided in the Cells-to-CTT™, Applied Biosystems, Cat #4399002) was used. […]
Substance,% KD STAT6 (STAT6 mRNA [1]) [%],% KD STAT6 (STAT6 mRNA [2]) [%]
"30011-DC: STAT6 siNA duplex; sense SEQ ID NO: 86, antisense SEQ ID NO: 87; target CCGAGAAUCUCUGCAGCAA, site 726 (sense CCGAGAAUCUCUGCAGCAATT; antisense UUGCUGCAGAGAUUCUCGGUU; sense: DNA at AGT, 2'-fluoro at CU, [invAb] at 5' end, 3' end, backbone not given here; antisense: sugars from the 5' end rrrffmfmmmmmfffffmmmm, backbone not given here) [STAT6 siNA duplex; target CCGAGAAUCUCUGCAGCAA, site 726]",34.9 ± 11.5,53.4 ± 0.2
"30027-DC: STAT6 siNA duplex; sense SEQ ID NO: 118, antisense SEQ ID NO: 119; target AAGACCCGGGCAUCGCUGA, site 1025 (sense AAGACCCGGGCAUCGCUGATT; antisense UCAGCGAUGCCCGGGUCUUUU; sense: DNA at AGT, 2'-fluoro at CU, [invAb] at 5' end, 3' end, backbone not given here; antisense: sugars from the 5' end rrrmfmmfmfffmmmffffmm, backbone not given here) [STAT6 siNA duplex; target …UCGCUGA, site 1025]",−0.8 ± 12.4,−3.3 ± 3.1
"29992-DC: STAT6 siNA duplex; sense SEQ ID NO: 48, antisense SEQ ID NO: 49; target CUGAGAACCCUCGUCACCA, site 1064 (sense CUGAGAACCCUCGUCACCATT; antisense UGGUGACGAGGGUUCUCAGUU; sense: DNA at AGT, 2'-fluoro at CU, [invAb] at 5' end, 3' end, backbone not given here; antisense: sugars from the 5' end rrrfmmfmmmmmfffffmmmm, backbone not given here) [STAT6 siNA duplex; target CUGAGAACCCUCGUCACCA, site 1064]",51.2 ± 0.4,−0.5 ± 1
"30001-DC: STAT6 siNA duplex; sense SEQ ID NO: 66, antisense SEQ ID NO: 67; target GAAAGCCUGGUGGACAUUU, site 956 (sense GAAAGCCUGGUGGACAUUUTT; antisense AAAUGUCCACCAGGCUUUCUU; sense: DNA at AGT, 2'-fluoro at CU, [invAb] at 5' end, 3' end, backbone not given here; antisense: sugars from the 5' end rrrfmfffmffmmmfffffmm, backbone not given here) [STAT6 siNA duplex; target GAAAGCCUGGUGGACAUUU, site 956]",48.2 ± 5,−5.9 ± 6.6
"30020-DC: STAT6 siNA duplex; sense SEQ ID NO: 104, antisense SEQ ID NO: 105; target CUAGCCUUCUCCUCAAUGA, site 1928 (sense CUAGCCUUCUCCUCAAUGATT; antisense UCAUUGAGGAGAAGGCUAGUU; sense: DNA at AGT, 2'-fluoro at CU, [invAb] at 5' end, 3' end, backbone not given here; antisense: sugars from the 5' end r3 f2 m10 f2 m4, backbone not given here) [STAT6 siNA duplex; target CUAGCCUUCUCCUCAAUGA, site 1928]",58.8 ± 13.6,64.2 ± 7.9
"30016-DC: STAT6 siNA duplex; sense SEQ ID NO: 96, antisense SEQ ID NO: 97; target GCCAGAUAACCAUGCCCUU, site 2447 (sense GCCAGAUAACCAUGCCCUUTT; antisense AAGGGCAUGGUUAUCUGGCUU; sense: DNA at AGT, 2'-fluoro at CU, [invAb] at 5' end, 3' end, backbone not given here; antisense: sugars from the 5' end rrrmmfmfmmffmfffmmfmm, backbone not given here) [STAT6 siNA duplex; target GCCAGAUAACCAUGCCCUU, site 2447]",−20 ± 8.9,61.8 ± 2.3
